{"source": "patent US12678498B2", "about": "“FGFR/PD-1 combination therapy for the treatment of cancer” (ASTEX THERAPEUTICS LTD, priority 2015, dated 2026)", "key": {"[1]": {"test_system": "peripheral blood mononuclear cells (PBMCs) from normal donors", "assay": "Immune cell viability of PBMCs by CellTiter-Glo", "assay_type": "cell-based", "conditions": "increasing concentrations up to 1 μM, days 1, 2, 5 and 6", "protocol": "To determine the effects of JNJ427564493 on immune cell viability in vitro, peripheral blood mononuclear cells (PBMCs) from normal donors were stimulated with anti-CD3 antibodies to activate T cells, in the presence of increasing concentrations of JNJ42756493. Unstimulated PBMCs were also included to determine if JNJ42756493 affected unactivated immune populations. Cell viability was assessed at four different time points, over 6 days."}, "[2]": {"test_system": "PBMCs from CMV-reactive donors stimulated with CMV antigen", "assay": "Cytomegalovirus antigen assay (CMV), IFN-γ in supernatant by MSD", "assay_type": "cell-based", "conditions": "JNJ42756493 alone at 100, 1 or 0.01 nM; 6 days after treatment", "protocol": "FIG. 5 illustrates the effect of JNJ42756493 on IFN-γ levels induced by anti-PD-1 antibodies in a Cytomegalovirus antigen assay (CMV) Assay. Peripheral blood mononuclear cells (PMBCs) were stimulated with CMV antigen and treated with anti-PD-1 antibodies (concentration left to right—30, 10, 3.33, 1.11, 0.37, 0.12 nM) as indicated. JNJ42756493 was added at 100, 1, or 0.01 nM alone (concentrations left to right), together with anti-PD-1 antibodies (100, 1, or 0.01 nM JNJ42756493 together with 30, 10, 3.33, 1.11, 0.37, or 0.12 nM of anti-PD-1 antibody), or in the presence of isotype control (IC). 6 days after treatment, IFN-γ levels in the supernatant were measured by MSD.\nIn the CMV assay, PBMCs from CMV-reactive donors were stimulated by the addition of CMV antigen. CMV-reactive T cells are active, expand and secrete pro-inflammatory cytokines such as IFN-γ. […] In contrast, JNJ42756493 alone had no impact on cytokine levels (FIG. 5, JNJ-493 alone)."}}, "data": [{"smiles": "COc1cc(OC)cc(N(CCNC(C)C)c2ccc3ncc(-c4cnn(C)c4)nc3c2)c1", "note": "[JNJ42756493, N-(3,5-dimethoxyphenyl)-N′-(1-methylethyl)-N-[3-(1-methyl-1H-pyrazol-4-yl)quinoxalin-6-yl]ethane-1,2-diamine]", "values": [{"measurement": "cell viability (luminescence signal)", "setting": "[1]; PBMCs stimulated with anti-CD3 antibodies", "value": "remained constant"}, {"measurement": "cell viability (luminescence signal)", "setting": "[1]; unstimulated PBMCs", "value": "remained constant"}, {"measurement": "cytokine (IFN-γ) levels", "setting": "[2]", "value": "no impact"}]}]}
